These are literature values, as cited in US7584087B2, “Structure of protein kinase C theta” (Wyeth, priority 2004, dated 2009).

Conditions in all cases: result in words, from Meggio et al. 1995
The subject of data set [1] is PKC isoforms.
Data set [2] has as its system casein kinase 1 (CK1).
Data set [3] concerns casein kinase 2 (CK2).
Data set [4] has as its system mitogen-activated protein kinase (MAPK).
For data set [5], the target named is CSK (Homo sapiens, UniProt P41240).
Chain of CSK (P41240 whole entry, species assumed): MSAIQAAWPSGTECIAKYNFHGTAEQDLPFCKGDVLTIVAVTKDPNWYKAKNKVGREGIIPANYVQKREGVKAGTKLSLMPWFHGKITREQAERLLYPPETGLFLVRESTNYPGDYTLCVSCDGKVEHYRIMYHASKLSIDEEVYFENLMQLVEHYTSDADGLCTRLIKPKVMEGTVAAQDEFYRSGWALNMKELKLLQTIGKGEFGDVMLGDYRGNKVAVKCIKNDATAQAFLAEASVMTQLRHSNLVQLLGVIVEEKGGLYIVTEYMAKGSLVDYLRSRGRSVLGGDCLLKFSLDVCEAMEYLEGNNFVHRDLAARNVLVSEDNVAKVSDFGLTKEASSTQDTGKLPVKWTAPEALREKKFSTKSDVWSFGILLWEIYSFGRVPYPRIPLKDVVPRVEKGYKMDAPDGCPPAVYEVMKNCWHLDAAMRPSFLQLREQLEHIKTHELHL

As to `CN[C@@H]1C[C@H]2O[C@@](C)([C@@H]1OC)n1c3ccccc3c3c4c(c5c6ccccc6n2c5c31)C(=O)NC4` [Staurosporine, staurosporine], the “potency against PKC isoforms” value in data set [1] is “low nanomolar”. For the same compound, in data set [2], the “potency against casein kinase 1 (CK1)” value was “micromolar”. Also, the “potency against casein kinase 2 (CK2)” value in data set [3] is given as “micromolar”. For the same compound, the “potency against mitogen-activated protein kinase (MAPK)” value in data set [4] is listed as “micromolar”. Further, the “potency against CSK” value in data set [5] is listed as “micromolar”.
